# Columns and labels:
# AKT1 = AKT1 (Homo sapiens, UniProt P31749); assay: AKT1 binding site mapping by crosslinking and MS; design: N-terminal vector leader of pEXP5-NT (6xHis + TEV site by own knowledge of the vector); made in house; host or cells: Expressway Mini Cell-Free Expression System (in vitro translation); conditions: for region of AKT1 crosslinked: 10 µM peptide, 2.5 µM AKT1, 100 µM BS3-d0/d4 (1:1), trypsin, MALDI-TOF-MS; for likely binding site on AKT1: from relative intensity of fragments and proximity of lysines; for AKT1 lysine(s) likely cross-linked: surface-exposed lysines mapped on PDB 3CQU
# Chain of AKT1 (P31749 whole entry, the tested form may be a part): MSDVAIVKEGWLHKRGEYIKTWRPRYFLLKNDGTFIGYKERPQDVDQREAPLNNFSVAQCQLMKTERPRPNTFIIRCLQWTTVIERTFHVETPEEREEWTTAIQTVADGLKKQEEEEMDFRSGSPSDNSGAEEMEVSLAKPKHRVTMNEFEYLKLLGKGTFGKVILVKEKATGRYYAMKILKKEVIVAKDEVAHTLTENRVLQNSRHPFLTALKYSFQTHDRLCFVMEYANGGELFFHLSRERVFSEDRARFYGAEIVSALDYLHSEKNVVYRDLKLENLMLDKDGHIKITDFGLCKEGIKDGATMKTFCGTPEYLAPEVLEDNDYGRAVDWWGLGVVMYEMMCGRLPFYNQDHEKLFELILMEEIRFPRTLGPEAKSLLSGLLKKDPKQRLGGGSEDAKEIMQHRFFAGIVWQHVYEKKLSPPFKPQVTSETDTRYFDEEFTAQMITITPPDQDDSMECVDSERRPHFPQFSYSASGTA
# From the text: As an orthogonal assessment of whether the peptides bind different sites on AKT1, each peptide was crosslinked to AKT1 in vitro using a commercially available set of deuterated / non-deuterated crosslinkers (BS^3-(d0/d4)). The crosslinkers chemically conjugate primary amines that are in close proximity to one another (11.4 Å) and the crosslinked complex is then subjected to enzymatic digestion and analysis by mass spectrometry. Crosslinked peptides are identified by the presence of a pair of ions that are separated by 4 mass units indicating crosslinking with both non-deuterated and deuterated crosslinkers. Peptide 1 has two possible crosslinking sites (N-terminus and K at position 3) and peptide 2 has one possible crosslinking site at the N-terminus. A 10 µM solution of each peptide was added to 2.5 µM AKT1 and incubated for 1 hour prior to the addition of a 100 µM solution of a 1∶1 mixture of crosslinkers. After crosslinking, the mixture was digested with trypsin and analyzed by MALDI-TOF-MS. […] The location of each AKT1 fragment was mapped onto a crystal structure of residues 139–480 of AKT1 (PDB #3CQU) (Figure 4C).
# 10 µM of peptide 1 and peptide 2 were individually incubated with 2.5 µM of recombinant AKT1 (produced in house) in PBS buffer (200 uL total volume) for one hour, after which an equimolar ratio of BS^3-d0∶BS^3-d4 (Thermo Scientific, Rockford, IL) crosslinker was added for a total crosslinker concentration of 100 µM. The same concentration of crosslinker was added to a 200 µL control sample containing only 2.5 µM AKT1. Crosslinking was performed for one hour. After crosslinking, free peptide and crosslinker were removed from the mixture with a 30 kDa spin filter and at the same time the buffer was exchanged with 100 mM ammonium bicarbonate pH 8.0. Proteomics grade trypsin (Sigma-Aldrich, St. Louis, MO) was added to all samples at a ratio of 1∶30 (mol∶mol) Trypsin∶AKT1 and incubated overnight at 37°C. Digested samples were lyophilized and reconstituted in 5 µL acetonitrile∶H2O (1∶1) containing 0.1% trifluoroacetic acid and spotted on a MALDI target plate along with ∝-cyano-4-hydroxycinnamic acid MALDI matrix. Mass spectra were obtained on an Ultraflex-III MALDI TOF-TOF (Bruker, Billerica, MA) and analyzed in FlexAnalysis (Bruker, Billerica, MA).
# [1] = target: synbody variant in which the C-terminal Cys was replaced with a Lys-Biotin; assay: pull-down; IP: biotin synbody on streptavidin magnetic beads; ^35S-labeled AKT1 in the IVT mixture diluted from 41.5 nM to 80 pM (AKT1 about 3% of total protein); liquid scintillation counting; 1:1 fit in GraphPad Prism
# Chain of ^35S-labeled AKT1 produced by in vitro translation (P31749 whole entry): as the sequence (P31749 whole entry, the tested form may be a part) above
Substance,region of AKT1 crosslinked (AKT1),likely binding site on AKT1 (AKT1),AKT1 lysine(s) likely cross-linked (AKT1),Kd [1]
"AHKVVPQRQIRHAYNRYGSG [peptide 1, 20-aa peptide arm of the synbody]",crosslinked to a region of AKT1 that spans the Protein Kinase (PK) and AGC Kinase domain,"in a region of low homology between AKT1, AKT2, and AKT3",^419Lys,
"FRGWAHIFFGPHVIYRGGSG [peptide 2, 20-aa peptide arm of the synbody]","crosslinked to multiple regions on AKT1 (Figure 4A, Figure 4B, Table S1), with the majority of crosslinking occurring in the PK domain",primary binding site for peptide 2 is likely on the PK domain and that a secondary binding site lies on the AGC domain,"^182Lys, ^276Lys, and ^481Lys",
^35S-labeled AKT1 produced by in vitro translation (from UniProt P31749 1-480) (natural protein),,,,4.9 nM
